Common to all, as to assay type: cell-based
The subject of assay [1] is NRF2 (nuclear factor erythroid 2-related factor 2). As to the kind of experiment: NRF2 activation assay (DiscoverX PathHunter NRF2 translocation kit, U2OS cells). The conditions noted are these: Homo sapiens; for Emax: U2OS, normalised to dimethyl fumarate high control; for EC50: U2OS PathHunter cells, 6 hours.
Assay [2] concerns IL-6 cytokine output from THP-1s. Kind of assay: THP-1 AlphaLISA IL-6 cytokine assay (differentiated THP-1 cells, LPS then nigericin). The following applies: Homo sapiens, 30 min pre-incubation, LPS 24 hr, nigericin 1 hour. The procedure:
(§1) Measuring Inhibitory Effects on IL-1β and IL-6 Cytokine Output from THP-1s
(§2) The cytokine inhibition profiles of compounds of formula (I) were determined in a differentiated THP-1 cell assay. All assays were performed in RPMI-1640 growth medium (Gibco), supplemented with 10% fetal bovine serum (FBS; Gibco), 1% penicillin-streptomycin and 1% sodium pyruvate unless specified otherwise. The IL-1β and IL-6 cytokine inhibition assays were each run in a background of differentiated THP-1 cells as described below. All reagents described were from Sigma-Aldrich unless specified otherwise. Compounds were prepared as 10 mM DMSO stocks.
(§3) THP-1 cells were expanded as a suspension up to 80% confluence in appropriate growth medium. Cells were harvested, suspended, and treated with an appropriate concentration of phorbol 12-myristate 13-acetate (PMA) over a 72 hr period (37° C./5% CO2).
(§4) Following 72 hrs of THP-1 cell incubation, cellular medium was removed and replaced with fresh growth media containing 1% of FBS. Working concentrations of compounds were prepared separately in 10% FBS treated growth medium and pre-incubated with the cells for 30 minutes (37° C./5% CO2). Following the 30 minute compound pre-incubation, THP-1s were treated with an appropriate concentration of LPS and the THP-1s were subsequently incubated for a 24 hr period (37° C./5% CO2). An appropriate final concentration of Nigericin was then dispensed into the THP-1 plates and incubated for 1 hour (37° C./5% CO2) before THP-1 supernatants were harvested and collected in separate polypropylene 96-well holding plates.
(§5) Reagents from each of the IL-1β and IL-6 commercial kits (Perkin Elmer) were prepared and run according to the manufacturer's instructions. Subsequently, fluorescence signal detection in a microplate reader was measured (EnVision® Multilabel Reader, Perkin Elmer).
(§6) Percentage inhibition was calculated per cytokine by normalizing the sample data to the high and low controls used within each plate (+/−LPS respectively).
For orientation: Alpha assays give light when donor and acceptor beads are brought close together.

For assay [3], the system named is IL-1β cytokine output from THP-1s. As to the kind of experiment: THP-1 AlphaLISA IL-1β cytokine assay (differentiated THP-1 cells, LPS then nigericin). The following applies: Homo sapiens, 30 min pre-incubation, LPS 24 hr, nigericin 1 hour. Here is the method:
as §1, §2, §3, §4, §5, §6

Setting [4] is: +GSH (30 minute compound/GSH pre-incubation).

Emax, EC50 and IC50 data for 28 compounds are collected here from patent US20240335451A1, “ACRYLAMIDE DERIVATIVES USEFUL AS ANTI-INFLAMMATORY AGENTS” (Sitryx Therapeutics Limited, priority 2021, published 2024).

Broadly, the Emax is the greatest response seen or fitted, relative to the assay's reference. A word on the EC50: it is the concentration needed to bring the measured effect to its halfway point. Read a low EC50 as a more potent agent. As a reminder, the IC50 is the concentration needed to halve the response being measured. A high value points to weaker potency.

Each structure is given as a SMILES string.

Regarding `C=C(CC(=O)O[C@@H](C)c1ccc(C(F)(F)F)cc1)C(N)=O` [Example 9, (S)-1-(4-(trifluoromethyl)phenyl)ethyl 3-carbamoylbut-3-enoate], the values for the Emax in assay [1] (+GSH) and in assay [1] (−GSH) were 26% and 110%, respectively. For the same compound, the EC50 in assay [1] (setting [4]) was more than 100 µM; in assay [1] (−GSH), 13.7 µM. In addition, the half-maximal inhibitory concentration (IC50) was determined as 4.5 µM in assay [2] and 10 µM in assay [3].

Consider `C=C(CC(=O)OC1(c2ccc(C(F)(F)F)cc2)CCC1)C(=O)NC` [Example 7, 1-(4-(trifluoromethyl)phenyl)cyclobutyl 3-(methylcarbamoyl)but-3-enoate], for which the maximal response (Emax) amounted to 27% in assay [1] (+GSH) and 119% in assay [1] (−GSH). Moreover, the EC50 in assay [1] (setting [4]) was more than 100 µM; in assay [1] (−GSH) it was 12.6 µM. Also, the IC50 in assay [2] was found to be 12.1 µM; in assay [3] it was 20.5 µM.

On to `C=C(Cc1nc(C2(c3ccc(SC(F)(F)F)cc3)CC2)no1)C(=O)NCC(=O)O` [Example 27, (2-((3-(1-(4-((trifluoromethyl)thio)phenyl)cyclopropyl)-1,2,4-oxadiazol-5-yl)methyl)acryloyl)glycine], for which the Emax in assay [1] (+GSH) came out at 20%; in assay [1] (−GSH), 26%. For the same compound, the 50% effective concentration (EC50) in assay [1] (setting [4]) and in assay [1] (−GSH) was more than 100 µM throughout. In addition, the values for the IC50 in assay [2] and in assay [3] were more than 100 µM and 9.5 µM, respectively.

On to `C=C(CC(=O)OC1(c2ccc(C(F)(F)F)c(F)c2)CCC1)C(=O)NC` [Example 22, 1-(3-fluoro-4-(trifluoromethyl)phenyl)cyclobutyl 3-(methylcarbamoyl)but-3-enoate], for which the Emax was 48% in assay [1] (+GSH) and 109% in assay [1] (−GSH). Also, the 50% effective concentration (EC50) in assay [1] (setting [4]) is more than 100 µM; in assay [1] (−GSH), 14.5 µM. The IC50 in assay [2] was found to be 9.4 µM; in assay [3], 11 µM.

As to `C=C(CC(=O)OC)C(=O)OC` [dimethyl itaconate, reference compound], the Emax in assay [1] (−GSH) is 126%. Moreover, the concentration for half-maximal inhibition (IC50) in assay [2] and in assay [3] was more than 100 µM in each case.

In assay [3], `C=C(Cc1nc(Cc2ccc(CCCC)cc2)no1)C(=O)Nc1ncc(C)s1` [Example 5, 2-((3-(4-butylbenzyl)-1,2,4-oxadiazol-5-yl)methyl)-N-(5-methylthiazol-2-yl)acrylamide] showed an IC50 of 1.9 µM.

Consider `C=C(CC(=O)O[C@H](C)c1ccc(C(F)(F)F)cc1)C(=O)NC` [Example 11, (R)-1-(4-(trifluoromethyl)phenyl)ethyl 3-(methylcarbamoyl)but-3-enoate], for which the IC50 in assay [2] was 1.9 µM; in assay [3], 3.3 µM.

For the compound `C=C(CC(=O)OC1(c2ccc(C(F)(F)F)cn2)COC1)C(N)=O` [Example 16, 3-(5-(trifluoromethyl)pyridin-2-yl)oxetan-3-yl 3-carbamoylbut-3-enoate], the IC50 in assay [2] stood at 4.6 µM; in assay [3], 8.6 µM.

For `C=C(Cc1nc(C2(c3ccc(SC(F)(F)F)cc3)CC2)no1)C(=O)Nc1cnccn1` [Example 2, N-(pyrazin-2-yl)-2-((3-(1-(4-((trifluoromethyl)thio)phenyl)cyclopropyl)-1,2,4-oxadiazol-5-yl)methyl)acrylamide], the Emax in assay [1] (+GSH) stood at 79%; in assay [1] (−GSH), 117%. The EC50 in assay [1] (setting [4]) is 5.2 µM; in assay [1] (−GSH), 0.9 µM. Moreover, the IC50 in assay [2] was found to be 0.6 µM; in assay [3], 0.4 µM.

In the case of `C=C(Cc1nc(Cc2ccc(CCCC)cc2)no1)C(=O)Nc1cnccn1` [Example 4, 2-((3-(4-butylbenzyl)-1,2,4-oxadiazol-5-yl)methyl)-N-(pyrazin-2-yl)acrylamide], the IC50 in assay [3] amounted to 1.1 µM.

On to `C=C(CC(=O)OC1(c2ccc(C(F)(F)F)cc2)CCC1)C(=O)NCCN1CCOCC1` [Example 24, 1-(4-(trifluoromethyl)phenyl)cyclobutyl 3-((2-morpholinoethyl)carbamoyl)but-3-enoate], for which the results for the IC50 in assay [2] and in assay [3] were 6.8 µM and 8.6 µM, respectively.

Turning to `C=C(CC(=O)OC(C)(C)CCCCCC)C(=O)Nc1cnccn1` [Example 6, 2-methyloctan-2-yl 3-(pyrazin-2-ylcarbamoyl)but-3-enoate], the half-maximal inhibitory concentration (IC50) in assay [2] came to 2.1 µM; in assay [3] it was 3.8 µM.

Consider `C=C(Cc1nc(C2(c3ccc(SC(F)(F)F)cc3)CC2)no1)C(=O)Nc1ncc(C)s1` [Example 1, N-(5-methylthiazol-2-yl)-2-((3-(1-(4-((trifluoromethyl)thio)phenyl)cyclopropyl)-1,2,4-oxadiazol-5-yl)methyl)acrylamide], for which the IC50 in assay [2] turned out to be 0.9 µM; in assay [3], 1 µM.

Take `C=C(CC(=O)OC1(c2ccc(C(F)(F)F)cn2)CCC1)C(=O)NC` [Example 17, 1-(5-(trifluoromethyl)pyridin-2-yl)cyclobutyl 3-(methylcarbamoyl)but-3-enoate]: the values for the IC50 in assay [2] and in assay [3] were 4.8 µM and 14.4 µM, respectively.

Consider `C=C(CC(=O)OC1(c2ccc(C(F)(F)F)c(F)c2)CCC1)C(N)=O` [Example 21, 1-(3-fluoro-4-(trifluoromethyl)phenyl)cyclobutyl 3-carbamoylbut-3-enoate], for which the IC50 in assay [2] worked out at 6.9 µM; in assay [3], 15.4 µM.

`C=C(Cc1ccccc1Cl)C(=O)O` [2-(2-chlorobenzyl)acrylic acid, reference compound]: the Emax in assay [1] (+GSH) stood at 9%; in assay [1] (−GSH), 2%. The EC50 in assay [1] (setting [4]) and in assay [1] (−GSH) was more than 100 µM in each case. In addition, the half-inhibitory concentration (IC50) in assay [3] is more than 100 µM.

Turning to `C=C(CC(=O)O[C@@H](C)c1ccc(C(F)(F)F)cc1)C(=O)NC` [Example 10, (S)-1-(4-(trifluoromethyl)phenyl)ethyl 3-(methylcarbamoyl)but-3-enoate], the IC50 in assay [2] stood at 3.5 µM; in assay [3], 10.5 µM.

With `C=C(CC(=O)OC1(c2ccc(C(F)(F)F)cc2)CCC1)C(=O)NCCS(C)(=O)=O` [Example 26, 1-(4-(trifluoromethyl)phenyl)cyclobutyl 3-((2-(methylsulfonyl)ethyl)carbamoyl)but-3-enoate], the results for the IC50 in assay [2] and in assay [3] were 11.3 µM and 18 µM, respectively.

As for `C=C(CC(=O)O[C@H](C)c1ccc(C(F)(F)F)cc1)C(N)=O` [Example 12, (R)-1-(4-(trifluoromethyl)phenyl)ethyl 3-carbamoylbut-3-enoate], the IC50 came to 14.4 µM in assay [2] and 20 µM in assay [3].

In the case of `C=C(CC(=O)OC1(c2cc(Cl)cc(Cl)c2)CCC1)C(=O)NC` [Example 19, 1-(3,5-dichlorophenyl)cyclobutyl 3-(methylcarbamoyl)but-3-enoate], the concentration for half-maximal inhibition (IC50) in assay [2] is 3.3 µM; in assay [3] it was 17.5 µM.

Regarding `C=C(CC(=O)OC1(c2ccc(C(F)(F)F)cc2)CCC1)C(=O)NCC(=O)O` [Example 29, (2-methylene-4-oxo-4-(1-(4-(trifluoromethyl)phenyl)cyclobutoxy)butanoyl) glycine], the IC50 in assay [2] is more than 31.6 µM; in assay [3], more than 100 µM.

Regarding `C=C(CC(=O)OC1(c2ccc(C(F)(F)F)cn2)CCC1)C(N)=O` [Example 18, 1-(5-(trifluoromethyl)pyridin-2-yl)cyclobutyl 3-carbamoylbut-3-enoate], the IC50 was found to be 14.4 µM in assay [2] and 9.3 µM in assay [3].

Take `C=C(CC(=O)OC1(c2ccc(C(F)(F)F)cc2)COC1)C(=O)NC` [Example 13, 3-(4-(trifluoromethyl)phenyl)oxetan-3-yl 3-(methylcarbamoyl)but-3-enoate]: the IC50 in assay [2] came out at 2.6 µM; in assay [3], 17.5 µM.

With `C=C(CC(=O)OC1(c2ccc(C(F)(F)F)cc2)CCC1)C(=O)NC1CS(=O)(=O)C1` [Example 25, 1-(4-(trifluoromethyl)phenyl)cyclobutyl 3-((1,1-dioxidothietan-3-yl)carbamoyl)but-3-enoate], the IC50 worked out at 9.5 µM in assay [2] and 19.9 µM in assay [3].

`C=C(CC(=O)OC1(c2ccc(C(F)(F)F)cc2)COC1)C(N)=O` [Example 14, 3-(4-(trifluoromethyl)phenyl)oxetan-3-yl 3-carbamoylbut-3-enoate]: the IC50 in assay [2] amounted to 4.4 µM; in assay [3], 6.5 µM.

With `C=C(CC(=O)OC1(c2ccc(C(F)(F)F)cn2)COC1)C(=O)NC` [Example 15, 3-(5-(trifluoromethyl)pyridin-2-yl)oxetan-3-yl 3-(methylcarbamoyl)but-3-enoate], the IC50 in assay [2] is 10.9 µM; in assay [3] it was 13.1 µM.

With `C=C(CC(=O)OC1(c2ccc(C(F)(F)F)cc2)CCC1)C(=O)NC1CCN(C)CC1` [Example 23, 1-(4-(trifluoromethyl)phenyl)cyclobutyl 3-((1-methylpiperidin-4-yl)carbamoyl)but-3-enoate], the results for the IC50 in assay [2] and in assay [3] were 24.1 µM and more than 31.6 µM, respectively.

In turn, `C=C(Cc1nc(Cc2ccc(CCCC)cc2)no1)C(=O)Nc1ccccn1` [Example 3, 2-((3-(4-butylbenzyl)-1,2,4-oxadiazol-5-yl)methyl)-N-(pyridin-2-yl)acrylamide] displayed an IC50 in assay [3] of 4.5 µM.
